Like-named read-outs stand apart in the source and are kept apart here.
Tests used:
Assay type in all cases: binding
[1] = molecular target: EGFR(L747-S752del, P753S) (Homo sapiens, UniProt P00533, DEL747-752/P753S); test: biochemical; details: read-out: Percent Control
[2] = molecular target: ABL1(H396P)-nonphosphorylated (Homo sapiens, UniProt P00519, H396P); test: biochemical; details: read-out: Percent Control
[3] = molecular target: INSR (Homo sapiens, UniProt P06213); test: scanMAX KINOMEscan (Eurofins); details: 1000 nM, read-out: Percent Control
Description: (§1) Supplement cb5c00097_si_002.xlsx, sheet "Table S6 (Eurofins Selectivity)" | column: Percent Control

[4] = molecular target: MEK1 (Homo sapiens, UniProt Q02750); test: scanMAX KINOMEscan (Eurofins); details: compound concentration 100 nM; Entrez MAP2K1; read-out: Percent Control
Description: as §1

[5] = molecular target: SNRK (Homo sapiens, UniProt Q9NRH2); test: scanMAX KINOMEscan (Eurofins); details: compound concentration 100 nM; Entrez SNRK; read-out: Percent Control
Description: as §1

[6] = molecular target: CSNK1A1L (Homo sapiens, UniProt Q8N752); test: scanMAX KINOMEscan (Eurofins); details: 1000 nM, read-out: Percent Control
Description: as §1

[7] = molecular target: CDC2L1 (Homo sapiens, UniProt P21127); test: scanMAX KINOMEscan (Eurofins); details: 1000 nM, read-out: Percent Control
Description: as §1

[8] = molecular target: FGFR3 (Homo sapiens, UniProt P22607); test: scanMAX KINOMEscan (Eurofins); details: read-out: Percent Control
FGFR3, sequence (P22607 23-806): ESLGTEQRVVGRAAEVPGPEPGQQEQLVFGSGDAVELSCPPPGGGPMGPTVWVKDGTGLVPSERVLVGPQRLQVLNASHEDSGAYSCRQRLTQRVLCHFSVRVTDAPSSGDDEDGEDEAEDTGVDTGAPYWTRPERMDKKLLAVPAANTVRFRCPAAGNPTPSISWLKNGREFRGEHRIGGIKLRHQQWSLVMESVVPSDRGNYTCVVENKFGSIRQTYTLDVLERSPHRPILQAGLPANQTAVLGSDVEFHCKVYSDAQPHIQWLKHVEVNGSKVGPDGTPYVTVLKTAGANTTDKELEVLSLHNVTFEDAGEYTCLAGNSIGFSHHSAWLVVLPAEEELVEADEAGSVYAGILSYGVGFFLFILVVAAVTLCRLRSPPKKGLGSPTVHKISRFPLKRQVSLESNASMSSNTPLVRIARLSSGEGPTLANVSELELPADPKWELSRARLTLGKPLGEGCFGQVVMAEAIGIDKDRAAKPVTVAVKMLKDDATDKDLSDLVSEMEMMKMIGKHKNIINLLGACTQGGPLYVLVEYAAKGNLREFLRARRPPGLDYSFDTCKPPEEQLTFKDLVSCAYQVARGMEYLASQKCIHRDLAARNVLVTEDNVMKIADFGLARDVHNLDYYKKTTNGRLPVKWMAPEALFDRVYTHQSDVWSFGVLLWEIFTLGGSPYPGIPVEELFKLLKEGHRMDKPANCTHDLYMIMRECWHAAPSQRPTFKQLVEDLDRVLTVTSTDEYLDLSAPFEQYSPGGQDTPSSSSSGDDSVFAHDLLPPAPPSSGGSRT
Description: as §1

[9] = molecular target: TXK (Homo sapiens, UniProt P42681); test: scanMAX KINOMEscan (Eurofins); details: 1000 nM, read-out: Percent Control
Description: as §1

[10] = molecular target: DAPK1 (Homo sapiens, UniProt P53355); test: scanMAX KINOMEscan (Eurofins); details: 1000 nM, read-out: Percent Control
Description: as §1

[11] = molecular target: MKNK1 (Homo sapiens, UniProt Q9BUB5); test: scanMAX KINOMEscan (Eurofins); details: 1000 nM, read-out: Percent Control
Description: as §1

[12] = molecular target: ULK2 (Homo sapiens, UniProt Q8IYT8); test: scanMAX KINOMEscan (Eurofins); details: compound concentration 100 nM; Entrez ULK2; read-out: Percent Control
Description: as §1

[13] = molecular target: TAOK2 (Homo sapiens, UniProt Q9UL54); test: scanMAX KINOMEscan (Eurofins); details: 1000 nM, read-out: Percent Control
Description: as §1

[14] = molecular target: ERN1 (Homo sapiens, UniProt O75460); test: scanMAX KINOMEscan (Eurofins); details: read-out: Percent Control
Description: as §1

[15] = molecular target: PIM1 (Homo sapiens, UniProt P11309); test: scanMAX KINOMEscan (Eurofins); details: 1000 nM, read-out: Percent Control
Description: as §1

[16] = molecular target: STK33 (Homo sapiens, UniProt Q9BYT3); test: scanMAX KINOMEscan (Eurofins); details: compound concentration 100 nM; Entrez STK33; read-out: Percent Control
Description: as §1

[17] = molecular target: MRCKA (Homo sapiens, UniProt Q5VT25); test: scanMAX KINOMEscan (Eurofins); details: 1000 nM, read-out: Percent Control
Description: as §1

[18] = molecular target: ERK8 (Homo sapiens, UniProt Q8TD08); test: scanMAX KINOMEscan (Eurofins); details: read-out: Percent Control
Description: as §1

[19] = molecular target: CDKL5 (Homo sapiens, UniProt O76039); test: scanMAX KINOMEscan (Eurofins); details: read-out: Percent Control
Description: as §1

[20] = molecular target: PFTAIRE2 (Homo sapiens, UniProt Q96Q40); test: scanMAX KINOMEscan (Eurofins); details: 1000 nM, read-out: Percent Control
Description: as §1

[21] = molecular target: CAMK1 (Homo sapiens, UniProt Q14012); test: scanMAX KINOMEscan (Eurofins); details: read-out: Percent Control
CAMK1, sequence (Q14012 whole entry): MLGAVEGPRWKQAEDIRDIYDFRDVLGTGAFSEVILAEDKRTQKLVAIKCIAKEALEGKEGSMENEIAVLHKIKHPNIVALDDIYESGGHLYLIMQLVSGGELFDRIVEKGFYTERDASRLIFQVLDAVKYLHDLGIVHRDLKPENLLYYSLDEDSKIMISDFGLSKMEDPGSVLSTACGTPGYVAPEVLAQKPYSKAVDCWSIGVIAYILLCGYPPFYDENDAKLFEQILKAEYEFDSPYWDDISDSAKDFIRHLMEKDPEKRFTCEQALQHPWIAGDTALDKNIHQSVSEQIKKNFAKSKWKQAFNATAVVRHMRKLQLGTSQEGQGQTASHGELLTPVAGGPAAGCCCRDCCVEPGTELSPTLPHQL
Description: as §1

[22] = molecular target: DYRK1B (Homo sapiens, UniProt Q9Y463); test: scanMAX KINOMEscan (Eurofins); details: read-out: Percent Control
DYRK1B, sequence (Q9Y463 whole entry): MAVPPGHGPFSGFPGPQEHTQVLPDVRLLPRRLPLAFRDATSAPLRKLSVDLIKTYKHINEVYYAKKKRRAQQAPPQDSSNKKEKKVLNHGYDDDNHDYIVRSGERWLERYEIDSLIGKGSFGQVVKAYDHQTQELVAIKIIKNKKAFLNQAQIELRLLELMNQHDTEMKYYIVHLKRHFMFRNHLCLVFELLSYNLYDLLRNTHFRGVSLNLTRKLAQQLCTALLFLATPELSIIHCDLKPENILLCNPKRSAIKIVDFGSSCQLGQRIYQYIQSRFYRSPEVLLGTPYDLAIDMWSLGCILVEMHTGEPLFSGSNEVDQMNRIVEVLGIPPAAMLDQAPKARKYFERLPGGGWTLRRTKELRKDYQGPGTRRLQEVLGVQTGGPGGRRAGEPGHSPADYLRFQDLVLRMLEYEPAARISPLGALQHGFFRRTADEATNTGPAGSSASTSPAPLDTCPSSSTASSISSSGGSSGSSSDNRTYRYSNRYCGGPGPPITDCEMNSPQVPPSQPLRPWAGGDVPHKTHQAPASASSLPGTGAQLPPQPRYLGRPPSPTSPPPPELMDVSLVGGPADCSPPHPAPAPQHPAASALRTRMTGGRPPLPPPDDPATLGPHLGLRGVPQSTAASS
Description: as §1

[23] = molecular target: ZAP70 (Homo sapiens, UniProt P43403); test: scanMAX KINOMEscan (Eurofins); details: compound concentration 100 nM; Entrez ZAP70; read-out: Percent Control
Description: as §1

[24] = molecular target: TGFBR2 (Homo sapiens, UniProt P37173); test: scanMAX KINOMEscan (Eurofins); details: compound concentration 100 nM; Entrez TGFBR2; read-out: Percent Control
Description: as §1

[25] = molecular target: CDK4-cyclinD1 (Homo sapiens, UniProt P11802); test: scanMAX KINOMEscan (Eurofins); details: 1000 nM, read-out: Percent Control
Description: as §1

[26] = molecular target: MLK2 (Homo sapiens, UniProt Q02779); test: scanMAX KINOMEscan (Eurofins); details: 1000 nM, read-out: Percent Control
Description: as §1

[27] = molecular target: ABL1-nonphosphorylated (Homo sapiens, UniProt P00519); test: scanMAX KINOMEscan (Eurofins); details: read-out: Percent Control
Description: as §1

[28] = molecular target: PLK1 (Homo sapiens, UniProt P53350); test: scanMAX KINOMEscan (Eurofins); details: 1000 nM, read-out: Percent Control
Description: as §1

[29] = molecular target: p38-alpha (Homo sapiens, UniProt Q16539); test: scanMAX KINOMEscan (Eurofins); details: compound concentration 100 nM; Entrez MAPK14; read-out: Percent Control
Description: as §1

[30] = molecular target: GRK7 (Homo sapiens, UniProt Q8WTQ7); test: scanMAX KINOMEscan (Eurofins); details: 1000 nM, read-out: Percent Control
Description: as §1

[31] = molecular target: ACVR1 (Homo sapiens, UniProt Q04771); test: scanMAX KINOMEscan (Eurofins); details: 1000 nM, read-out: Percent Control
Description: as §1

[32] = molecular target: ARK5 (Homo sapiens, UniProt O60285); test: scanMAX KINOMEscan (Eurofins); details: read-out: Percent Control
ARK5, sequence (O60285 whole entry): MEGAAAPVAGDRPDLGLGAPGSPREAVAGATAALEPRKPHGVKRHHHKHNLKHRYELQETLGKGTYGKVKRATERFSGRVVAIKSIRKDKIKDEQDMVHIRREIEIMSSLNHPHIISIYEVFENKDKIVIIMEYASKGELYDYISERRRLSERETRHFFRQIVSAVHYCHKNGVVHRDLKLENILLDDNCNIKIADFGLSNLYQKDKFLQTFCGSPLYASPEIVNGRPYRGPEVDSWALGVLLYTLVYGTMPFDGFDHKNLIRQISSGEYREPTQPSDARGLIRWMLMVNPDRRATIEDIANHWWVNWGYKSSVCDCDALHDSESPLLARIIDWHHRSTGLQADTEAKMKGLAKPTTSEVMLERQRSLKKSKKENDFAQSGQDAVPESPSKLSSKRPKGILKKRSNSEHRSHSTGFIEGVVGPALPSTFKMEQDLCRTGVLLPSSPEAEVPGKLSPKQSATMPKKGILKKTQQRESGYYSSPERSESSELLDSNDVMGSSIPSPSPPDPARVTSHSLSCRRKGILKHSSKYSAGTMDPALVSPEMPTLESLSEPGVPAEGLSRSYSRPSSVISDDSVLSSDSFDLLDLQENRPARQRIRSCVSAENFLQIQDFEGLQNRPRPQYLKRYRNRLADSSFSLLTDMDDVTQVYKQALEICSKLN
Description: as §1

[33] = molecular target: LRRK2 (Homo sapiens, UniProt Q5S007); test: scanMAX KINOMEscan (Eurofins)
LRRK2, sequence (Q5S007 whole entry): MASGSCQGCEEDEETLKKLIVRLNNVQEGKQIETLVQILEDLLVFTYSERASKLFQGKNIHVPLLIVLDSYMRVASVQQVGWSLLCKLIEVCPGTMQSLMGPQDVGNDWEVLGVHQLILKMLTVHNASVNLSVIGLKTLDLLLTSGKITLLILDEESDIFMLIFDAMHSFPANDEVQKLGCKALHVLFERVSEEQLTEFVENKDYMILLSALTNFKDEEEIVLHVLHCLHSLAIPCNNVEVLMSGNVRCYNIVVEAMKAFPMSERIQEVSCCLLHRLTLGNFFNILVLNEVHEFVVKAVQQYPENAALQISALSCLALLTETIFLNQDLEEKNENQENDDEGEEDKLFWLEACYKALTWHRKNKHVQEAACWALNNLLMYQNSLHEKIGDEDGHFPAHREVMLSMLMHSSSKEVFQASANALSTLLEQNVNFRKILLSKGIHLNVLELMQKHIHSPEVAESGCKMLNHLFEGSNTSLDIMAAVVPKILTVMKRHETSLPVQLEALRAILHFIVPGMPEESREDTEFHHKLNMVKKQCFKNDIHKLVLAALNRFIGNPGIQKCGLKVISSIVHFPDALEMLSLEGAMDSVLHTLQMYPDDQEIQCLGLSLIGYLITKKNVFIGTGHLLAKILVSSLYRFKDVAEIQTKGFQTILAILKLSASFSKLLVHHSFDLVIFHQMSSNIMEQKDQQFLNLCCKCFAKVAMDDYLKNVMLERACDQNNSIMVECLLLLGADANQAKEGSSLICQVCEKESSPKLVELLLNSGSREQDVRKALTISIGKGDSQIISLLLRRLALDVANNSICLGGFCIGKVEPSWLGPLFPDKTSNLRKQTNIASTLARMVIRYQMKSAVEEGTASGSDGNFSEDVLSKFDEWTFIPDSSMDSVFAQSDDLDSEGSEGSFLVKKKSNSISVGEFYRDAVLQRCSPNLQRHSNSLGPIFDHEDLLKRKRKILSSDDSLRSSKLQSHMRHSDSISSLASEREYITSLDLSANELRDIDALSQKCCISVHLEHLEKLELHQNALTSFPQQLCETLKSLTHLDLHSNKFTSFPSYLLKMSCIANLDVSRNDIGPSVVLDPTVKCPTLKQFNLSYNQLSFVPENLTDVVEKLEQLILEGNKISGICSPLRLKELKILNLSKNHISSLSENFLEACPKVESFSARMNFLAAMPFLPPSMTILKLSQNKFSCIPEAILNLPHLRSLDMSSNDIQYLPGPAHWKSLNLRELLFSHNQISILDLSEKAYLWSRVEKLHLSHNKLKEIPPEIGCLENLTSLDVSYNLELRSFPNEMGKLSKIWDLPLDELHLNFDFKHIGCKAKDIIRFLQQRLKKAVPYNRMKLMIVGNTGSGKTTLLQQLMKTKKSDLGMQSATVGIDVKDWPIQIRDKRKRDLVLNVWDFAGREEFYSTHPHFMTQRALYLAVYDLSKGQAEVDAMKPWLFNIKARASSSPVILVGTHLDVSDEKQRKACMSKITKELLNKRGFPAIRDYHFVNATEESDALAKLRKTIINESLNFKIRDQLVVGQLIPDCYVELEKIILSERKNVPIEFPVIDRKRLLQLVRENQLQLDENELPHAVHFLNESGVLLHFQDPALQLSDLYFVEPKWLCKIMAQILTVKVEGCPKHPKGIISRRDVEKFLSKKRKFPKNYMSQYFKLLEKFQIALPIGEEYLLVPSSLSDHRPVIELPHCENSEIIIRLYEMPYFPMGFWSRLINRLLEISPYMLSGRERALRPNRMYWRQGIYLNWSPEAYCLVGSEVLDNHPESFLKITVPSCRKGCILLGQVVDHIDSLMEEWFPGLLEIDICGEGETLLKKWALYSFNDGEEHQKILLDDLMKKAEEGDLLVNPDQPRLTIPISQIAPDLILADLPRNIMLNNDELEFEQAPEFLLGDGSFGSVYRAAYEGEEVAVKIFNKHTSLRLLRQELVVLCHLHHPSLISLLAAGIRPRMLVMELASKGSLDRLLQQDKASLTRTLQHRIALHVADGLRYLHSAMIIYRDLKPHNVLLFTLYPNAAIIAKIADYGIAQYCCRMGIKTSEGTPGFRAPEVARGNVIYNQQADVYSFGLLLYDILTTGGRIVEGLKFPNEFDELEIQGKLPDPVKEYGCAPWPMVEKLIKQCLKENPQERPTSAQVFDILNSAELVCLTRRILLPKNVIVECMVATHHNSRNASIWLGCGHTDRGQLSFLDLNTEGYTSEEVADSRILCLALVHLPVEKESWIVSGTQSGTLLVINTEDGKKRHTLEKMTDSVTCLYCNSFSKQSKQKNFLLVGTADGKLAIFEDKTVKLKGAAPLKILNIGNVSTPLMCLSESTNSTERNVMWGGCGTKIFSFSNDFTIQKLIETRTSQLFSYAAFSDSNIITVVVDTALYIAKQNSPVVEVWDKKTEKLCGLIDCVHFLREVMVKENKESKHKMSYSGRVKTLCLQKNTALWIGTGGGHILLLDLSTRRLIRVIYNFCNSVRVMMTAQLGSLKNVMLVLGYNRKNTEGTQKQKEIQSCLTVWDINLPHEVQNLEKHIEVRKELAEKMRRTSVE

## CN1C(=O)[C@@H](N2CCc3c(nn(Cc4ccccc4)c3C(N)=O)C2=O)COc2cc(Cl)ccc21 [Compound 10, (S)-2-benzyl-6-(8-chloro-5-methyl-4-oxo-2,3,4,5-tetrahydrobenzo[b][1,4]oxazepin-3-yl)-7-oxo-4,5,6,7-tetrahydro-2H-pyrazolo[3,4-c]pyridine-3-carboxamide]
[1]
  remaining activity at 1 µM: 100%
[2]
  remaining activity at 1 µM: 66%
[3]
  remaining binding at 1 µM: 98%
[4]
  remaining binding at 0.1 µM: 91%
[5]
  remaining binding at 0.1 µM: 99%
[6]
  remaining binding at 1 µM: 85%
[7]
  remaining binding at 1 µM: 83%
[8]; 1000 nM
  remaining binding at 1 µM: 100%
[8]; compound concentration 100 nM, Entrez FGFR3
  remaining binding at 0.1 µM: 100%
[9]
  remaining binding at 1 µM: 86%
[10]
  remaining binding at 1 µM: 96%
[11]
  remaining binding at 1 µM: 77%
[12]
  remaining binding at 0.1 µM: 80%
[13]
  remaining binding at 1 µM: 90%
[14]; 1000 nM
  remaining binding at 1 µM: 100%
[14]; compound concentration 100 nM, Entrez ERN1
  remaining binding at 0.1 µM: 100%
[15]
  remaining binding at 1 µM: 78%
[16]
  remaining binding at 0.1 µM: 80%
[17]
  remaining binding at 1 µM: 88%
[18]; 1000 nM
  remaining binding at 1 µM: 100%
[18]; compound concentration 100 nM, Entrez MAPK15
  remaining binding at 0.1 µM: 82%
[19]; 1000 nM
  remaining binding at 1 µM: 100%
[19]; compound concentration 100 nM, Entrez CDKL5
  remaining binding at 0.1 µM: 100%
[20]
  remaining binding at 1 µM: 90%
[21]; 1000 nM
  remaining binding at 1 µM: 100%
[21]; compound concentration 100 nM, Entrez CAMK1
  remaining binding at 0.1 µM: 90%
[22]; 1000 nM
  remaining binding at 1 µM: 100%
[22]; compound concentration 100 nM, Entrez DYRK1B
  remaining binding at 0.1 µM: 100%
[23]
  remaining binding at 0.1 µM: 84%
[24]
  remaining binding at 0.1 µM: 100%
[25]
  remaining binding at 1 µM: 72%
[26]
  remaining binding at 1 µM: 94%
[27]; 1000 nM
  remaining binding at 1 µM: 100%
[27]; compound concentration 100 nM, Entrez ABL1
  remaining binding at 0.1 µM: 100%
[28]
  remaining binding at 1 µM: 73%
[29]
  remaining binding at 0.1 µM: 100%
[30]
  remaining binding at 1 µM: 98%
[31]
  remaining binding at 1 µM: 91%
[32]; 1000 nM
  remaining binding at 1 µM: 99%
[32]; compound concentration 100 nM, Entrez NUAK1
  remaining binding at 0.1 µM: 86%
[33]; LRRK2 (Entrez LRRK2), 100 nM, read-out: Percent Control
  remaining binding at 0.1 µM: 84%
[33]; LRRK2, 1 μM, read-out: POC (Top Hits @ 1 μM)
  remaining binding at 1 µM: 62%
[33]; LRRK2, 1000 nM, read-out: Percent Control
  remaining binding at 1 µM: 62%
